The text below walks through data of ChEMBL document CHEMBL5113515, “The Discovery of GSK3640254, a Next-Generation Inhibitor of HIV-1 Maturation” (J Med Chem, 2022).

The subject of data set [1] is Human immunodeficiency virus 1. As to the kind of experiment: Antiviral activity against HIV1 harbouring deltaV370/T371A mutant infected in human MT2 cells measured after 4 to 5 days by dual-luciferase reporter assay. The class given is functional, organism-based. The settings on record: Human immunodeficiency virus 1, MT2.
Data set [2] concerns Human immunodeficiency virus 1. As to the kind of experiment: Antiviral activity against HIV1 harbouring T332S/V362I/prR41G mutant infected in human MT2 cells measured after 4 to 5 days by dual-luciferase reporter assay. The class given is functional, organism-based. Conditions: Human immunodeficiency virus 1, MT2.
Data set [3] deals with Human immunodeficiency virus 1. As to the kind of experiment: Antiviral activity against HIV1 wild type NL (4 to 3) infected in human MT2 cells measured after 4 to 5 days in presence of human serum by dual-luciferase reporter assay. The class given is functional, organism-based. Conditions: Human immunodeficiency virus 1, MT2.
In data set [4] the test system is MT2. As to the kind of experiment: Cytotoxicity in human MT2 cells assessed as reduction in cell viability. In kind it is functional.
Data set [5] has as its system Human immunodeficiency virus 1. As to the kind of experiment: Antiviral activity against HIV1 wild type NL (4 to 3) infected in human MT2 cells measured after 4 to 5 days by dual-luciferase reporter assay. The class given is functional, organism-based. The settings on record: Human immunodeficiency virus 1, MT2.
Data set [6] can be described thus: AUC in rat at 5 mg/kg, po. The class given is ADME, organism-based. On the set-up: dose 5 mg/kg, route po. Conditions: in vivo, read-out: AUC.
The subject of data set [7] is Human immunodeficiency virus 1. As to the kind of experiment: Antiviral activity against HIV1 harbouring V362I/V370A mutant infected in human MT2 cells measured after 4 to 5 days by dual-luciferase reporter assay. In kind it is functional, organism-based. Conditions: Human immunodeficiency virus 1, MT2.
Data set [8] has as its system Human immunodeficiency virus 1. As to the kind of experiment: Binding affinity to HIV1 wild type Gag assessed as dissociation constant by measuring half life.
The subject of data set [9] is Human immunodeficiency virus 1. As to the kind of experiment: Antiviral activity against HIV1 wild type subtype C NL (4 to 3) transfected in human HEK293T cells by dual-luciferase reporter assay. The class given is functional, organism-based. Conditions: Human immunodeficiency virus 1, HEK-293T.
Data set [10] is described as follows: AUC(0 to t) in overnight fasted Beagle dog at 2 mg/kg, po or 1 mg/kg, iv. In kind it is ADME, organism-based, Canis lupus familiaris. On the set-up: dose 2 mg/kg, route po. The settings on record: in vivo.
Data set [11] deals with Human immunodeficiency virus 1. As to the kind of experiment: Antiviral activity against HIV in plasma assessed log10 reduction of HIV RNA over 40 mg/kg, po measured after 11 days. In kind it is functional. The settings on record: time 11 day.
The nature of data set [12]: Binding affinity to HIV1 wild type Gag assessed as dissociation constant. The arrangement: species or system Human immunodeficiency virus 1.
Data set [13] is described as follows: AUC(0 to t) in overnight fasted Sprague-Dawley rat at 5 mg/kg, po or 1 mg/kg, iv. In kind it is ADME, organism-based. On the set-up: dose 5 mg/kg, route po. The settings on record: in vivo.
For data set [14], the system named is Human immunodeficiency virus 1. As to the kind of experiment: Antiviral activity against HIV1 NL (4 to 3) harbouring V362I mutant transfected in human HEK293T cells by dual-luciferase reporter assay. In kind it is functional, organism-based. Conditions: Human immunodeficiency virus 1, HEK-293T.
Data set [15] can be described thus: Cmax in overnight fasted cynomolgus monkey at 2 mg/kg, po or 1 mg/kg, iv. In kind it is ADME, organism-based, Macaca fascicularis. On the set-up: dose 2 mg/kg, route po. Conditions: in vivo.
Data set [16] relates to Human immunodeficiency virus 1. As to the kind of experiment: Antiviral activity against HIV1 wild type subtype B NL (4 to 3) harbouring V362/Q369/V370/T371 transfected in human HEK293T cells by dual-luciferase reporter assay. The class given is functional, organism-based. Conditions: Human immunodeficiency virus 1, HEK-293T.
A short description of data set [17]: Volume of distribution at steady state in overnight fasted mouse at 5 mg/kg, po or 1 mg/kg, iv. In kind it is ADME, organism-based. Conditions: in vivo.
The nature of data set [18]: Volume of distribution at steady state in overnight fasted cynomolgus monkey at 2 mg/kg, po or 1 mg/kg, iv. In kind it is ADME, organism-based, Macaca fascicularis. Conditions: in vivo.
Data set [19] is described as follows: Volume of distribution at steady state in overnight fasted Sprague-Dawley rat at 5 mg/kg, po or 1 mg/kg, iv. In kind it is ADME, organism-based. The settings on record: in vivo.
The subject of data set [20] is Human immunodeficiency virus 1. As to the kind of experiment: Antiviral activity against HIV1 NL (4 to 3) harbouring V362I/deltaV370 mutant transfected in human HEK293T cells by dual-luciferase reporter assay. In kind it is functional, organism-based. Conditions: Human immunodeficiency virus 1, HEK-293T.
The nature of data set [21]: AUC(0 to t) in overnight fasted mouse at 5 mg/kg, po or 1 mg/kg, iv. On the set-up: dose 5 mg/kg, route po. The settings on record: in vivo. In kind it is ADME, organism-based.
Data set [22] in a line: AUC(0 to t) in overnight fasted cynomolgus monkey at 2 mg/kg, po or 1 mg/kg, iv. The class given is ADME, organism-based, Macaca fascicularis. The arrangement: dose 2 mg/kg, route po. Conditions: in vivo.
Data set [23] can be described thus: Half life in overnight fasted Beagle dog at 1 mg/kg, iv. The class given is ADME, organism-based, Canis lupus familiaris. The settings on record: in vivo.
Data set [24] can be described thus: Oral bioavailability in overnight fasted cynomolgus monkey using spray-dried dispersion at 2 mg/kg. The class given is ADME, organism-based, Macaca fascicularis. The settings on record: in vivo.
For data set [25], the system named is Human immunodeficiency virus 1. As to the kind of experiment: Antiviral activity against HIV1 virus harboring NL (4 to 3) harbouring […]/V370A mutant transfected in human HEK293T cells by luciferase reporter assay. In kind it is functional, organism-based. Conditions: Human immunodeficiency virus 1, HEK-293T.
In data set [26] the test system is Human immunodeficiency virus 1. As to the kind of experiment: Antiviral activity against HIV1 wild type subtype B NL (4 to 3) transfected in human HEK293T cells by dual-luciferase reporter assay. In kind it is functional, organism-based. Conditions: Human immunodeficiency virus 1, HEK-293T.
Data set [27] can be described thus: Cmax in overnight fasted Beagle dog at 2 mg/kg, po or 1 mg/kg, iv. In kind it is ADME, organism-based, Canis lupus familiaris. On the set-up: dose 2 mg/kg, route po. The settings on record: in vivo.
Data set [28] can be described thus: Volume of distribution at steady state in overnight fasted Beagle dog at 2 mg/kg, po or 1 mg/kg, iv. In kind it is ADME, organism-based, Canis lupus familiaris. The settings on record: in vivo.
A short description of data set [29]: Oral bioavailability in overnight fasted Beagle dog using spray-dried dispersion at 2 mg/kg. The class given is ADME, organism-based, Canis lupus familiaris. The settings on record: in vivo.
A short description of data set [30]: Solubility of the compound in FeSSIF at pH 5.0. The class given is physicochemical.
A short description of data set [31]: Aqueous solubility of compound at pH 1 to 8. In kind it is physicochemical.
Data set [32] is described as follows: Solubility of the compound in FaSSIF at pH 6.5. The class given is physicochemical.

`C=C(C)[C@@H]1CC[C@]2(NCCN3CCC(S(C)(=O)=O)CC3)CC[C@]3(C)[C@H](CC[C@@H]4[C@@]5(C)CC=C(C6=CCC(C(=O)O)(C(F)F)CC6)C(C)(C)[C@@H]5CC[C@]43C)[C@@H]12` (stereo partly specified): the EC50 in data set [1] turned out to be 1.3 nM; in data set [2] it was 6.6 nM; in data set [3], 12.7 nM; in [5], 1.9 nM; in [7] it was 2.5 nM. Moreover, the CC50 in data set [4] amounted to 11 µM. The AUC in data set [6] was 17.9 µM·h.

Regarding `C=C(C)[C@@H]1CC[C@]2(NCCN3CCS(=O)(=O)CC3)CC[C@]3(C)[C@H](CC[C@@H]4[C@@]5(C)CC=C(C6=CC7(C6)CC(C(=O)O)C7)C(C)(C)[C@@H]5CC[C@]43C)[C@@H]12` (stereo partly specified), the EC50 was found to be 5.8 nM in [1], 363 nM in data set [2] and 48.5 nM in data set [7]. In data set [4], the CC50 turned out to be 10.7 µM. For the same molecule, in data set [6], the AUC is 11.7 µM·h.

Turning to `C=C(C)[C@@H]1CC[C@]2(NCCN3CCS(=O)(=O)CC3)CC[C@]3(C)[C@H](CC[C@@H]4[C@@]5(C)CC=C(C6=CC[C@@](CF)(C(=O)O)CC6)C(C)(C)[C@@H]5CC[C@]43C)[C@@H]12`, the T1/2 in data set [8] turned out to be 5.73 h.

Turning to `C=C(C)[C@@H]1CC[C@]2(NCCN3CCS(=O)(=O)CC3)CC[C@]3(C)[C@H](CC[C@@H]4[C@@]5(C)CC=C(c6ccc(C(=O)O)cc6)C(C)(C)[C@@H]5CC[C@]43C)[C@@H]12` [BMS-955176], the EC50 in data set [1] worked out at 6 nM; in [9], 9.1 nM; in data set [14], 11.1 nM; in data set [2], 704 nM; in [16] it was 2.8 nM; in data set [3], 10.2 nM. For the same molecule, the EC50 in data set [5] was 5 nM; in data set [20], 1400 nM; in data set [25], over 3000 nM; in data set [26], 66 nM; in data set [7] it was over 3000 nM. The molecule also yielded an AUCt in [10] of 29.3 µM·h. This molecule also had an Activity in data set [11] of over 1 log10IU/ml. Further, the Kd in [12] came out at 1.4 nM. Further, the AUC(0-t) in [13] was 14.2 µM·h; in [21], 21.6 µM·h; in data set [22] it was 1 µM·h. For the same molecule, the Cmax in data set [15] worked out at 100 nM; in data set [27], 600 nM. Also, the CC50 in [4] worked out at 13 µM. In addition, the Vdss worked out at 0.82 L/kg in data set [17], 0.43 L/kg in data set [18], 1.1 L/kg in data set [19] and 0.36 L/kg in [28]. The same molecule had a half-life in data set [23] of 1900 min. In [24], this molecule had a bioavailability of 4%. The T1/2 in [8] is 0.717 h. This molecule yielded a F in [29] of 9%.

`C=C(C)[C@@H]1CC[C@]2(NCCN3CCC(S(C)(=O)=O)CC3)CC[C@]3(C)[C@H](CC[C@@H]4[C@@]5(C)CC=C(C6=CCC(CCCO)(C(=O)O)CC6)C(C)(C)[C@@H]5CC[C@]43C)[C@@H]12` (stereo partly specified): the EC50 in data set [1] was determined as 2.9 nM; in data set [2], 7.9 nM; in data set [3], 16 nM; in data set [5], 2.6 nM; in data set [7], 3.2 nM. Further, in data set [4], the CC50 came to 12.4 µM. The AUC in data set [6] came to 4.36 µM·h.

With `C=C(C)[C@@H]1CC[C@]2(NCCN3CCS(=O)(=O)CC3)CC[C@]3(C)[C@H](CC[C@@H]4[C@@]5(C)CC=C(C6=CC[C@@](CF)(C(=O)O)CC6)C(C)(C)[C@@H]5CC[C@]43C)[C@@H]12.Cl.Cl`, the solubility in [30] was 800 µg/mL; in [31] it was under 1 µg/mL; in data set [32] it was 310 µg/mL.

As for `C=C(C)[C@@H]1CC[C@]2(NCCN3CCC(S(C)(=O)=O)CC3)CC[C@]3(C)[C@H](CC[C@@H]4[C@@]5(C)CC=C(C6=CCC(CCO)(C(=O)O)CC6)C(C)(C)[C@@H]5CC[C@]43C)[C@@H]12` (stereo partly specified), the EC50 was 3.7 nM in data set [1]; 10.1 nM in data set [2]; 154 nM in [3]; 3 nM in data set [5]; 2.2 nM in data set [7]. The CC50 in [4] amounted to 4.9 µM. Moreover, in [6], the AUC was found to be 0.591 µM·h.

For `C=C(C)[C@@H]1CC[C@]2(NCCN3CCS(=O)(=O)CC3)CC[C@]3(C)[C@H](CC[C@@H]4[C@@]5(C)CC=C(C6=CCC(CC(=O)O)CC6)C(C)(C)[C@@H]5CC[C@]43C)[C@@H]12` (stereo partly specified), the EC50 was determined as 5.3 nM in data set [1]; 124 nM in [2]; 12 nM in [3]; 13.1 nM in [5]; 15.7 nM in data set [7]. In addition, the CC50 in [4] came to 6.4 µM.

On to `C=C(C)[C@@H]1CC[C@]2(NCCN3CCC(S(C)(=O)=O)CC3)CC[C@]3(C)[C@H](CC[C@@H]4[C@@]5(C)CC=C(C6=CCC(CO)(C(=O)O)CC6)C(C)(C)[C@@H]5CC[C@]43C)[C@@H]12` (stereo partly specified), for which the EC50 turned out to be 1 nM in [1]; 4.6 nM in [2]; 12.6 nM in data set [3]; 1.1 nM in [5]; 1.2 nM in data set [7]. The cytotoxic concentration (CC50) in [4] worked out at 9.47 µM. Moreover, the AUC in data set [6] turned out to be 2.37 µM·h.
